Test results: EP3150203B1, “COMPOUNDS WITH (1E,6E)-1,7-BIS-(3,4- DIMETHOXYPHENYL)-4,4-DISSTITUTED-HEPA-1,6-DIENE-3,5-DI-ONE STRUCTURAL SCAFFOLD,THEIR BIOLOGICAL ACTIVITY, AND USES THEREOF” (Allianz Pharmascience Ltd, priority 2012, dated 2013)
Numbering of substitutions follows the chain as printed.

Columns and labels:
AR protein = target: T1, AR protein (Homo sapiens, UniProt P10275, T878A); test: Cycloheximide chasing assay of AR degradation in LNCaP cells; assay type: cell-based; conditions: in the presence of cycloheximide (CHX) (FIG. 7)
T1 sequence (P10275 1-920 T878A): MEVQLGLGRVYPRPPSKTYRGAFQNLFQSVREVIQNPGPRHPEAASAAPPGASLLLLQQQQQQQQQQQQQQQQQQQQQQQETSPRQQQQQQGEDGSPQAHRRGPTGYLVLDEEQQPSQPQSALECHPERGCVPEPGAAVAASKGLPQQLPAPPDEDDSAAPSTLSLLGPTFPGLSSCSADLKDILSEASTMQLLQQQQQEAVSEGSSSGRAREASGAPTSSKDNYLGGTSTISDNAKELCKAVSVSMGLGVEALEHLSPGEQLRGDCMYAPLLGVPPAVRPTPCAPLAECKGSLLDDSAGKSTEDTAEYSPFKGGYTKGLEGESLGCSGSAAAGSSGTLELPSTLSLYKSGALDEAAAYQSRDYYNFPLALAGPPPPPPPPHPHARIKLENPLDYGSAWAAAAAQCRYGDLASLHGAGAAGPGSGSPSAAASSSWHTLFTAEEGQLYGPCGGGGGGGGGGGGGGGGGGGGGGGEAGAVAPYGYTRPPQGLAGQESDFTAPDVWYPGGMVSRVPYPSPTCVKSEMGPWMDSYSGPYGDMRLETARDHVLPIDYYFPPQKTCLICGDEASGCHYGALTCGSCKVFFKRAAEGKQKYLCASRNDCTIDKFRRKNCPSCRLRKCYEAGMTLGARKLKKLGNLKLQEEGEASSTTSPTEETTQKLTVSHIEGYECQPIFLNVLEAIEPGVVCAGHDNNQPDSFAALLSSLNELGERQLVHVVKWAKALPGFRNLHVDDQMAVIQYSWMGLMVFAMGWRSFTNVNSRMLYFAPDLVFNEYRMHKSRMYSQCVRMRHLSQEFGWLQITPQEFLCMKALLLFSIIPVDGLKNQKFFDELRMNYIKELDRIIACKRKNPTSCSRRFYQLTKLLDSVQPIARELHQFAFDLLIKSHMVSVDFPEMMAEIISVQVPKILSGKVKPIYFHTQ
Description: AR protein "degradation" in prostate cancer cells was measured by using cycloheximide (a protein synthesis inhibitor) chasing assay method. Briefly, LNCaP cells were incubated with testing ASC compound at the designated concentrations for 24 hours. Subsequently, cycloheximide was added to the cells at a concentration of 15 µg/ml to block new protein synthesis. After incubation, cells were harvested at designated time periods and the resultant change in AR protein levels were analysed using Western Blot analysis as described above.

[1] = tested on: CWR22Rv1 cells (human prostate cancer); test: MTT cell growth assay, CWR22Rv1 cells; assay type: cell-based; conditions: Homo sapiens, 120 h, 5 days, read-out: Inhibition of Tumor cells growth IC50
Description: The MTT cell proliferation assay was applied in the present invention to detect the capability of compounds to suppress or inhibit prostate cancer cells growth. […] Briefly, 1 x 10^3 LNCaP or CWR22Rv1 cells suspended in complete medium were plated into each well of a 96-well Microtest III tissue culture plate (Falcon, NJ). Two days later, the medium was replaced with RPMI-1640 medium containing 10% charcoal/dextran-deprived FBS (hormone-deprived fetal bovine serum). Testing compounds were added to the medium at indicated concentrations with or without 1 nM DHT and cells were cultured for 5 days in an incubator (at 37 °C). MTT substrate solution (5 mg/ml in PBS) in 1/10 of volume was added to the cells in each well at 2 hours before harvesting. After 2 hour incubation, the plates were centrifuged (10 min at 1,000 rpm) and the supernatant from each well was carefully removed. A 100 µl of lysis buffer (50% dimethyl formamide, 5% sodium dodecyl sulphate, 0.35 M acetic acid, and 50 mM HCl) was added to each well to lyse the cells and dissolved tetrazolium in each well. The relative quantity of enzyme activity from each well was measured based on absorbance read at a wavelength of 450 nm using a Bio-RAD BenchMark microplate reader. Data derived from the MTT assay were also verified by the actual cell count and cell morphology on a separate plate set up in parallel.
For inhibition of tumor cell growth, in vitro, cells were growth in the presence of testing compounds for 5 days, and the cell growth was assayed by standard MTT assay. […] Table 2: Biological activity of Compounds and Derivatives having (1E, 6E)-1,7-bis-(3,4-dimethoxyphenyl)-4,4-disubstituted-hepta-1,6-diene-3,5-dione OR (1E, 10E)-1,11-bis(substituted phenyl)- 6,6-disubstituted undeca-1,3,8,10-tetraene-5,7-dione structural scaffold

Androgen Receptor (AR) [2] = target: T2, Androgen Receptor (AR) (Homo sapiens, UniProt P10275, H875Y, form not given); test: Western Blot analysis of AR protein expression in CWR22Rv1 cells; assay type: cell-based; conditions: various concentrations, Western Blot (FIG. 6)
T2 sequence (P10275 1-920 H875Y): T1 sequence (P10275 1-920 T878A) with H875Y, A878T

Androgen Receptor (AR) [3] = target: T3, Androgen Receptor (AR) (Homo sapiens, UniProt P10275, T878A); test: Western Blot analysis of AR protein expression in LNCaP cells; conditions: various concentrations, Western Blot (FIG. 6)
T3 sequence (P10275 1-920 T878A): T1 sequence (P10275 1-920 T878A)

Structure (SMILES)	AR protein degradation (AR protein)	IC50 [1]	reducing endogenous AR expression (Androgen Receptor (AR) [2])	reducing endogenous AR expression (Androgen Receptor (AR) [3])
COc1ccc(C=CC(=O)C=C(O)C=Cc2ccc(OC)c(OC)c2)cc1OC [ASC-J9®, 1,7-Bis-(3,4-dimethoxy-phenyl)-5-hydroxy-hepta-1,4,6-trien-3-one, reference compound]	enhances AR protein degradation	4 µM		
COc1ccc(/C=C/C(=O)C(C(=O)/C=C/c2ccc(OC)c(OC)c2)=C(O)/C=C/c2ccc(OC)c(OC)c2)cc1OC [ASC-JM4]			capable of reducing endogenous AR expression	capable of reducing endogenous AR expression
COc1ccc(/C=C/C(=O)C2CC(c3ccc(OC)c(OC)c3)(C(C(=O)/C=C/c3ccc(OC)c(OC)c3)C(=O)/C=C/c3ccc(OC)c(OC)c3)CC2=O)cc1OC (centres unmarked) [ASC-JM5]	enhances AR protein degradation			
